Experimental data taken from patent publication US20250223303A1, “TRICYCLIC BORONIC ACID DERIVATIVE, AND PREPARATION METHOD THEREFOR AND APPLICATION THEREOF” (priority 2021, published 2025).
pIC50: −log10 of the molar value.

Tests used:
[1] = test system: Acinetobacter baumannii ARLG-1809 OXA-23; assay: MIC test of compounds in combination with antibiotics, Acinetobacter baumannii ARLG-1809; conditions: Acinetobacter baumannii ARLG-1809 OXA-23
Method: (§15) 2-Fold gradient dilution of antibiotics: 300 μL of CAMHVIB medium was added to columns 2-12 of a 96-deep well plate. In column 1, 24 μL of antibiotic stock solution and 576 µL of CAMHB medium were added and mixed well, with a concentration of 512 μg/mL. 300 µL of antibiotic solution was transferred from the column 1 to the second column and mixed well. The process was repeated until column 11, and the column 12 was a blank control.
(§16) Dilution of combined compounds: the compound was diluted 400-fold to 32 μg/ml with CAMHB medium.
(§17) Working solution aliquoting: 25 μL of antibiotics was aliquoted into the 96-U bottom plate with a pipette, and 25 μL of combined compound was added to each well. If antibiotics were used alone, 25 μL of CAMHB medium was added.
(§18) Inoculum solution preparation: 5-6 single colonies were selected from the plate and suspended in normal saline. The bacterial suspension was adjusted to 0.2 (i.e., 0.5 McFarland turbidity, with a bacterial concentration was about 1 to 2×10^8 CFU/mL) with a turbidity meter. The bacterial suspension was diluted 100-fold with CAMHB medium for later use.
(§19) Inoculation: 50 μL of inoculum solution was transferred to the above 50 μL compound plate with a pipette.
(§20) Culture: The 96-U bottom plate was placed in an incubator at 37° C. for 18 to 20 h.

KPC-2 = molecular target: T1, KPC-2 (Klebsiella pneumoniae, UniProt Q9F663); assay: Enzyme activity test (FC5 fluorescent substrate), KPC-2; type: biochemical; conditions: enzyme 45 pM, substrate FC5 25 μM
T1 construct: purchased GenScript Biotech Co., Ltd
T1 sequence (Q9F663 25-293 limits assumed): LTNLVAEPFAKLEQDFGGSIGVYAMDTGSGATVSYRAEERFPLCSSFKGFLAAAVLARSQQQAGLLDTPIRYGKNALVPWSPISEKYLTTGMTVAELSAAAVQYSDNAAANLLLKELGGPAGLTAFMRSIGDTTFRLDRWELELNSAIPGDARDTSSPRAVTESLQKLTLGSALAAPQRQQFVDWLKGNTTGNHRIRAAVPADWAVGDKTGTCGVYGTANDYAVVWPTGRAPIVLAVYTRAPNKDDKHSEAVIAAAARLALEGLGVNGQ
Method: (§1) Compound stock solution: the compound was prepared as a 50 mM DMSO stock solution. […] After aliquoting, the compound stock solutions were stored at −20° C.
(§2) Preparation and storage of antibiotic substrate stock solution: antibiotic fluorescent substrate FC5 was synthesized internally and prepared as a 2 mM stock solution, which was stored at −20° C. after aliquoting.
(§3) Storage of β-lactamases: each […] was synthesized by GenScript Biotech Co., Ltd., and stored at −80° C. after aliquoting to avoid repeated freezing and thawing.
(§4) Preparation of enzyme activity reaction buffer: SBL buffer: PBS pH 7.4, 0.01% (v/v) Triton X-100; MBL buffer: 50 Mm HEPES in PBS pH 7.2, 1 μM ZnSO4, 1 μg/mL BSA, 0.010% v/v Triton X-100
(§5) a) The compound to be tested and buffer were taken out and warmed to room temperature.
(§6) b) Each compound was diluted with DMSO and buffer to the initial experimental concentration (Table 2), and then the compound was diluted 3-fold for a total of 10 concentrations.
(§7) c) Diluted compounds were added to wells 1 to 20 of a 384-well black plate at 2 replicate wells per concentration, 5 μL per well. 5 µL of DMSO was added to wells 21 to 24.
(§8) d) Each enzyme was diluted to the experimental concentration (Table 2) in SBL and MBL buffers, and finally 35 μL/well was added, with a total of 22 wells. 35 μL buffer was added to wells 23 to 24. Wells 21 to well 22 served as the maximum test values (Max), while wells 23 to 24 were designated as the minimum test values (Min).
(§9) e) The 384-well plate was centrifuged quickly and incubated for 10 minutes at room temperature.
(§10) f) The antibiotic substrate FC5 was diluted in buffer to the experimental concentration of each enzyme (Table 2).
(§11) g) The incubated 384-well plate was taken out and FC-5 was added to wells […]. The 384-well plate was centrifuged rapidly and promptly transferred to a microplate reader for reading.
(§12) h) The fluorescence intensity was measured at 355 nm excitation light/460 nm emission light in the microplate reader, and the fluorescence intensity was measured every three minutes for a total of 10 measurements.
(§13) Initial velocity of enzyme reaction V: Subtract the background reading (Min wells) without enzyme from each fluorescence intensity reading, and then perform on a linear regression analysis on each compound concentration group. The slope is the initial velocity of enzyme reaction (V) at each compound concentration.
(§14) Dose-effect curve and IC50 calculation of compounds: The initial velocity of enzyme reaction under the effect of each concentration of compounds was subjected to nonlinear regression fitting. The IC50 (half-maximal inhibitory concentration) of each compound was calculated using the formula […] (Vi: the initial velocity of enzyme reaction at each compound concentration; V0: initial velocity of enzyme reaction without the compound (Max wells). The software used was Graphpad prism 8.

[2] = test system: Acinetobacter baumannii WX-AB005; assay: MIC test of compounds in combination with antibiotics, Acinetobacter baumannii WX-AB005; conditions: Acinetobacter baumannii WX-AB005
Method: as §15, §16, §17, §18, §19, §20

[3] = test system: Acinetobacter baumannii WX-AB013; assay: MIC test of compounds in combination with antibiotics, Acinetobacter baumannii WX-AB013; conditions: Acinetobacter baumannii WX-AB013
Method: as §15, §16, §17, §18, §19, §20

[4] = test system: Acinetobacter baumannii ARLG-1852 OXA-23; assay: MIC test of compounds in combination with antibiotics, Acinetobacter baumannii ARLG-1852; conditions: Acinetobacter baumannii ARLG-1852 OXA-23
Method: as §15, §16, §17, §18, §19, §20

[5] = test system: Acinetobacter baumannii ARLG-1791 OXA-23; assay: MIC test of compounds in combination with antibiotics, Acinetobacter baumannii ARLG-1791; conditions: Acinetobacter baumannii ARLG-1791 OXA-23
Method: as §15, §16, §17, §18, §19, §20

VIM-2 = molecular target: T2, VIM-2 (Escherichia coli, UniProt Q5U7L7); assay: Enzyme activity test (FC5 fluorescent substrate), VIM-2; type: biochemical; conditions: enzyme 25 pM, substrate FC5 20 μM
T2 construct: purchased GenScript Biotech Co., Ltd
Method: as §1, §2, §3, §4, §5, §6, §7, §8, §9, §10, §11, §12, §13, §14

CTX-M-15 = molecular target: T3, CTX-M-15 (Escherichia coli, UniProt Q9EXV5); assay: Enzyme activity test (FC5 fluorescent substrate), CTX-M-15; type: biochemical; conditions: enzyme 45 pM, substrate FC5 50 μM
T3 construct: purchased GenScript Biotech Co., Ltd
T3 sequence (Q9EXV5 entry or part of it): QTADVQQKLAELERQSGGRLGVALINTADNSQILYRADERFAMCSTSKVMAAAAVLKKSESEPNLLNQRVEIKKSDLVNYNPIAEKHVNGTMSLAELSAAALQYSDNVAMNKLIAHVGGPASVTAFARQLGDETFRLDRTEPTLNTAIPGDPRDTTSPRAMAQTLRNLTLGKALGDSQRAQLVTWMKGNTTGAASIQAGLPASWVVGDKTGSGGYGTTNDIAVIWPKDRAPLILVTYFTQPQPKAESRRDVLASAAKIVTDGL
Method: as §1, §2, §3, §4, §5, §6, §7, §8, §9, §10, §11, §12, §13, §14

VIM-1 = molecular target: T4, VIM-1 (Pseudomonas aeruginosa, UniProt A0A0F7KYQ8); assay: Enzyme activity test (FC5 fluorescent substrate), VIM-1; type: biochemical; conditions: enzyme 70 pM, substrate FC5 10 μM
T4 construct: purchased GenScript Biotech Co., Ltd
Method: as §1, §2, §3, §4, §5, §6, §7, §8, §9, §10, §11, §12, §13, §14

OXA-23 = molecular target: T5, OXA-23 (Acinetobacter baumannii, UniProt Q9L4P2); assay: Enzyme activity test (FC5 fluorescent substrate), OXA-23; type: biochemical; conditions: enzyme 650 pM, substrate FC5 50 μM
T5 construct: purchased GenScript Biotech Co., Ltd
T5 sequence (Q9L4P2 18-273): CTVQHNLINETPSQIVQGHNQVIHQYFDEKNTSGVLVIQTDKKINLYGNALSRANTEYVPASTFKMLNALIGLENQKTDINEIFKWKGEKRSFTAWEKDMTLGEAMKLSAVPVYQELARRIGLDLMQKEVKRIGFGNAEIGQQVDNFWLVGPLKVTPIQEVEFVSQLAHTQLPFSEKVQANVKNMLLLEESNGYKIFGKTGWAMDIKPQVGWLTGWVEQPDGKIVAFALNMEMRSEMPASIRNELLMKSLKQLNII
Method: as §1, §2, §3, §4, §5, §6, §7, §8, §9, §10, §11, §12, §13, §14

[6] = test system: Klebsiella pneumoniae ARLG 1196; assay: MIC test of compounds in combination with antibiotics, Klebsiella pneumoniae ARLG 1196; conditions: Klebsiella pneumoniae ARLG-1196 CTM-1 group, SHV, NDM, TEM
Method: Strain preparation: the strains to be tested were streaked from glycerol tube at −80° C. onto Mueller Hinton II Agar plates. The plates were then placed in a 37° C. incubator and cultured for 18-24 hours.
Media preparation: CAMHB (Mueller Hinton II Broth): 22 g of powder was dissolved in 1 L of purified water and sterilized at 121° C. for 10 min for use. Saline: 8.5 g NaCl was dissolved in 1 L of pure water and sterilized at 121° C. for 30 min for use.
Preparation of compound and antibiotic stock solutions: the compound and antibiotic were dissolved in DMSO or water to 12.8 mg/mL.
as §15, §16, §17, §18, §19, §20
After the incubation, bacterial growth was visually observed, and the test plate was photographed and recorded.

OXA-48 = molecular target: T6, OXA-48 (Klebsiella pneumoniae, UniProt Q6XEC0); assay: Enzyme activity test (FC5 fluorescent substrate), OXA-48; type: biochemical; conditions: enzyme 650 pM, substrate FC5 125 μM
T6 construct: purchased GenScript Biotech Co., Ltd
T6 sequence (Q6XEC0 23-265 limits assumed): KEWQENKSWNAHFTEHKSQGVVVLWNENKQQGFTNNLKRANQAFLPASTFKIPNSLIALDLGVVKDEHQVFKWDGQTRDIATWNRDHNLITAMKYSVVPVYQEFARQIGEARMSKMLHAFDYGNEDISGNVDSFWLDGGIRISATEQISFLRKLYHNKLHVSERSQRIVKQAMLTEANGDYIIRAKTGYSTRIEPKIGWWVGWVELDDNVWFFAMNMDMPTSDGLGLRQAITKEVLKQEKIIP
Method: as §1, §2, §3, §4, §5, §6, §7, §8, §9, §10, §11, §12, §13, §14

Ampc = Ampc (UniProt P24735); assay: Enzyme activity test (FC5 fluorescent substrate), AmpC; type: biochemical; conditions: enzyme 25 pM, substrate FC5 15 μM
Method: as §1, §2, §3, §4, §5, §6, §7, §8, §9, §10, §11, §12, §13, §14

OXA-10 = molecular target: T7, OXA-10 (Pseudomonas aeruginosa, UniProt P14489); assay: Enzyme activity test (FC5 fluorescent substrate), OXA-10; type: biochemical; conditions: enzyme 350 pM, substrate FC5 50 μM
T7 construct: purchased GenScript Biotech Co., Ltd
T7 sequence (P14489 20-266): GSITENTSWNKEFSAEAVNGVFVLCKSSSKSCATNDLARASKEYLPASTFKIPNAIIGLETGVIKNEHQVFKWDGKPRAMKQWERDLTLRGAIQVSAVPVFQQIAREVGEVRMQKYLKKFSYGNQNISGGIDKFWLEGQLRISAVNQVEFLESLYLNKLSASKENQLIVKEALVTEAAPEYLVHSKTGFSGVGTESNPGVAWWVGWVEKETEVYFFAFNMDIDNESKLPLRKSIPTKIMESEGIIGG
Method: as §1, §2, §3, §4, §5, §6, §7, §8, §9, §10, §11, §12, §13, §14

[7] = test system: carbapenem-resistant Acinetobacter baumannii strains; assay: MIC test of compounds in combination with antibiotics, resistant Acinetobacter baumannii strains; conditions: all resistant strains of Acinetobacter baumannii
IMP-1 = molecular target: T8, IMP-1 (Serratia marcescens, UniProt P52699); assay: Enzyme activity test (FC5 fluorescent substrate), IMP-1; type: biochemical; conditions: enzyme 20 pM, substrate FC5 15 μM
T8 construct: purchased GenScript Biotech Co., Ltd
T8 sequence (P52699 19-246 limits assumed): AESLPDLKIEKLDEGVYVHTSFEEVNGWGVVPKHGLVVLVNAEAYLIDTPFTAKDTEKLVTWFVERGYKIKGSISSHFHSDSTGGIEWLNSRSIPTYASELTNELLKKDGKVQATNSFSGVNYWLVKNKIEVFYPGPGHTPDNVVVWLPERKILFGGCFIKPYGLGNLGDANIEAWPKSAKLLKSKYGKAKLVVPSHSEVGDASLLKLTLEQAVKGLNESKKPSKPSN
Method: as §1, §2, §3, §4, §5, §6, §7, §8, §9, §10, §11, §12, §13, §14

## NCCNC1CCC(CC(=O)N[C@H]2Cc3cccc(C(=O)O)c3OB2O)CC1 (stereo partly shown) [VNRX-5133, reference compound]
[1]; Cefepime + compound (8 μg/mL)
  MIC: 32 µg/mL
[1]; Meropenem + compound (8 μg/mL)
  MIC: 128 µg/mL
KPC-2
  pIC50: 7.19
[2]; Cefepime + compound (8 μg/mL)
  MIC: 128 µg/mL
[2]; Meropenem + compound (8 μg/mL)
  MIC: 128 µg/mL
[3]; Cefepime + compound (8 μg/mL)
  MIC: 64 µg/mL
[3]; Meropenem + compound (8 μg/mL)
  MIC: 128 µg/mL
[4]; Cefepime + compound (8 μg/mL)
  MIC: 32 µg/mL
[4]; Meropenem + compound (8 μg/mL)
  MIC: 128 µg/mL
[5]; Cefepime + compound (8 μg/mL)
  MIC: 16 µg/mL
[5]; Meropenem + compound (8 μg/mL)
  MIC: 128 µg/mL
VIM-2
  pIC50: 8.36
CTX-M-15
  pIC50: 7.91
VIM-1
  pIC50: 7.48
OXA-23
  pIC50: < 5.00
[6]; Cefepime + compound (8 μg/mL)
  MIC: 1 µg/mL
[6]; Meropenem + compound (8 μg/mL)
  MIC: 1 µg/mL
OXA-48
  pIC50: 6.46
Ampc
  pIC50: 6.07
OXA-10
  pIC50: 6.33
[7]
  MIC of the combination with cefepime/meropenem: > 32 µg/mL
IMP-1
  pIC50: < 5.00
